Active and inactive are the calls of the source. No cut-off for these calls is given here. Where a SMILES comes first, the peptide text is derived from it. [ ]: non-standard residue; d: D form. βAla = NCCC(=O)O
System: Monoclonal antibody (mAb) 3E7
Assay: Affinity towards anti-beta-endorphin MAb(Clone 3-E7) using [3H][Leu5]-enkephalin as labeled ligand

| SMILES | IC50 |
| --- | --- |
| NC(=O)CC[C@H](NC(=O)[C@H](Cc1ccccc1)NC(=O)CNC(=O)CNC(=O)[C@@H](N)Cc1ccccc1)C(=O)O (H-FGGFQ-OH) | 0.015 µM |
| CC(C)C[C@H](NC(=O)[C@H](C)NC(=O)CNC(=O)[C@@H](N)Cc1ccc(O)cc1)C(=O)N[C@@H](CCC(N)=O)C(=O)NCCC(N)=O (H-YGALQ[βAla]-NH2) | 2.87 µM |
| CSCC[C@H](NC(=O)CNC(=O)CNC(=O)[C@@H](N)Cc1ccc(O)cc1)C(=O)N[C@H](C(N)=O)C(C)C (H-YGGMV-NH2) | 14 µM |

System: Monoclonal antibody (mAb) 3E7
Assay: Affinity towards anti-beta-endorphin MAb(Clone 3-E7) using [3H][Leu5]-enkephalin as labeled ligand at 10 uM concentration; not active

| SMILES | Activity |
| --- | --- |
| NC(=O)C[C@H](N)C(=O)N[C@@H](Cc1ccc(O)cc1)C(=O)NCC(=O)NCC(=O)N[C@@H](Cc1ccccc1)C(=O)O (H-NYGGF-OH) | inactive |
| NC(=O)C[C@H](NC(=O)[C@H](Cc1ccccc1)NC(=O)[C@H](Cc1c[nH]c2ccccc12)NC(=O)CNC(=O)[C@@H](N)Cc1ccc(O)cc1)C(=O)O (H-YGWFN-OH) | inactive |
| NC(=O)CC[C@H](NC(=O)[C@H](Cc1c[nH]c2ccccc12)NC(=O)[C@H](Cc1ccc(O)cc1)NC(=O)CNC(=O)[C@@H](N)Cc1ccc(O)cc1)C(=O)O (H-YGYWQ-OH) | inactive |
| CC(C)C[C@H](N)C(=O)N[C@@H](Cc1ccc(O)cc1)C(=O)NCC(=O)NCC(=O)N[C@@H](Cc1ccccc1)C(=O)O (H-LYGGF-OH) | inactive |
| NC(=O)CC[C@H](NC(=O)[C@H](Cc1ccccc1)NC(=O)[C@H](Cc1c[nH]c2ccccc12)NC(=O)CNC(=O)[C@@H](N)Cc1ccc(O)cc1)C(=O)O (H-YGWFQ-OH) | inactive |
| CSCC[C@H](NC(=O)CNC(=O)[C@@H](N)Cc1ccc(O)cc1)C(=O)NCC(=O)N[C@@H](Cc1ccccc1)C(=O)O (H-YGMGF-OH) | inactive |
| C[C@H](NC(=O)[C@H](Cc1c[nH]cn1)NC(=O)CNC(=O)[C@@H](N)Cc1ccc(O)cc1)C(=O)N[C@@H](Cc1ccccc1)C(=O)O (H-YGHAF-OH) | inactive |
| CC(C)[C@H](NC(=O)CNC(=O)[C@@H](N)Cc1ccc(O)cc1)C(=O)N[C@@H](Cc1ccccc1)C(=O)N[C@@H](C)C(=O)O (H-YGVFA-OH) | inactive |
| C[C@H](NC(=O)CNC(=O)[C@@H](N)Cc1ccc(O)cc1)C(=O)N[C@@H](Cc1ccccc1)C(=O)N[C@@H](Cc1ccccc1)C(=O)O (H-YGAFF-OH) | inactive |
| CSCC[C@H](NC(=O)[C@H](Cc1ccccc1)NC(=O)[C@H](C)NC(=O)CNC(=O)[C@@H](N)Cc1ccc(O)cc1)C(=O)O (H-YGAFM-OH) | inactive |
| CC(C)C[C@H](NC(=O)[C@H](C)NC(=O)CNC(=O)[C@@H](N)Cc1ccc(O)cc1)C(=O)N[C@H](C(=O)O)[C@@H](C)O (H-YGALT-OH) | inactive |
| NC(=O)CC[C@H](NC(=O)[C@H](Cc1ccccc1)NC(=O)CNC(=O)CNC(=O)[C@@H](N)Cc1ccc(O)cc1)C(=O)O (H-YGGFQ-OH) | inactive |
| C[C@H](NC(=O)CNC(=O)[C@@H](N)Cc1ccc(O)cc1)C(=O)N[C@@H](Cc1c[nH]c2ccccc12)C(=O)N[C@@H](CC(=O)O)C(=O)O (H-YGAWD-OH) | inactive |
| CC[C@H](C)[C@H](NC(=O)[C@H](Cc1ccccc1)NC(=O)[C@H](C)NC(=O)CNC(=O)[C@@H](N)Cc1ccc(O)cc1)C(=O)O (H-YGAFI-OH) | inactive |
| N[C@@H](Cc1ccc(O)cc1)C(=O)NCC(=O)N[C@@H](Cc1c[nH]c2ccccc12)C(=O)N[C@@H](Cc1ccccc1)C(=O)N[C@@H](Cc1c[nH]cn1)C(=O)O (H-YGWFH-OH) | inactive |
| CC(C)C[C@H](NC(=O)CNC(=O)[C@@H](N)Cc1ccc(O)cc1)C(=O)NCC(=O)N[C@@H](Cc1ccccc1)C(=O)O (H-YGLGF-OH) | inactive |
| CSCC[C@H](NC(=O)[C@H](Cc1c[nH]c2ccccc12)NC(=O)[C@H](Cc1c[nH]c2ccccc12)NC(=O)CNC(=O)[C@@H](N)Cc1ccc(O)cc1)C(=O)O (H-YGWWM-OH) | inactive |
| CC(C)[C@H](NC(=O)CNC(=O)[C@@H](N)Cc1ccc(O)cc1)C(=O)N[C@@H](Cc1ccccc1)C(=O)N[C@@H](CCC(=O)O)C(=O)O (H-YGVFE-OH) | inactive |

| SMILES | Activity |
| --- | --- |
| CC(C)[C@H](NC(=O)[C@H](Cc1ccccc1)NC(=O)[C@H](CCC(N)=O)NC(=O)CNC(=O)[C@@H](N)Cc1ccc(O)cc1)C(=O)O (H-YGQFV-OH) | inactive |
| NC(=O)CC[C@H](NC(=O)[C@H](Cc1ccccc1)NC(=O)[C@H](Cc1ccccc1)NC(=O)CNC(=O)[C@@H](N)Cc1ccc(O)cc1)C(=O)O (H-YGFFQ-OH) | inactive |
| CC(C)C[C@H](NC(=O)[C@H](CC(C)C)NC(=O)CNC(=O)[C@H](Cc1ccc(O)cc1)NC(=O)[C@@H](N)CCCN=C(N)N)C(=O)O (H-RYGLL-OH) | inactive |
| C[C@H](NC(=O)CNC(=O)[C@@H](N)Cc1ccc(O)cc1)C(=O)N[C@@H](Cc1ccccc1)C(=O)N[C@@H](CCC(N)=O)C(=O)O (H-YGAFQ-OH) | inactive |
| NC(=O)CC[C@H](NC(=O)[C@@H](N)Cc1ccc(O)cc1)C(=O)NCC(=O)NCC(=O)N[C@@H](Cc1ccccc1)C(=O)O (H-YQGGF-OH) | inactive |
| CC[C@H](C)[C@H](NC(=O)[C@H](Cc1ccccc1)NC(=O)[C@@H](NC(=O)CNC(=O)[C@@H](N)Cc1ccc(O)cc1)C(C)C)C(=O)O (H-YGVFI-OH) | inactive |
| CC(C)C[C@H](NC(=O)[C@@H](N)Cc1ccc(O)cc1)C(=O)NCC(=O)NCC(=O)N[C@@H](Cc1ccccc1)C(=O)O (H-YLGGF-OH) | inactive |
| CC[C@H](C)[C@H](NC(=O)[C@H](Cc1ccccc1)NC(=O)CNC(=O)CNC(=O)[C@@H](N)Cc1ccc(O)cc1)C(=O)O (H-YGGFI-OH) | inactive |
| NC(=O)C[C@H](NC(=O)CNC(=O)[C@@H](N)Cc1ccc(O)cc1)C(=O)N[C@@H](Cc1ccccc1)C(=O)N[C@@H](Cc1ccccc1)C(=O)O (H-YGNFF-OH) | inactive |
| C[C@H](NC(=O)[C@H](CCC(=O)O)NC(=O)CNC(=O)[C@@H](N)Cc1ccc(O)cc1)C(=O)N[C@@H](Cc1ccccc1)C(=O)O (H-YGEAF-OH) | inactive |
| NCCCC[C@H](NC(=O)[C@@H](N)Cc1ccc(O)cc1)C(=O)NCC(=O)NCC(=O)N[C@@H](Cc1ccccc1)C(=O)O (H-YKGGF-OH) | inactive |
| CC(C)C[C@H](NC(=O)[C@H](Cc1ccccc1)NC(=O)CNC(=O)CNC(=O)[C@@H](N)Cc1ccc(O)cc1)C(=O)O [ENKEPHALIN] | inactive |
| N[C@@H](Cc1ccc(O)cc1)C(=O)NCC(=O)N1CCC[C@H]1C(=O)NCC(=O)N[C@@H](Cc1ccccc1)C(=O)O (H-YGPGF-OH) | inactive |
| C[C@H](NC(=O)CNC(=O)[C@@H](N)Cc1ccc(O)cc1)C(=O)N[C@@H](Cc1ccccc1)C(=O)N[C@H](C(=O)O)[C@@H](C)O (H-YGAFT-OH) | inactive |
| N[C@@H](Cc1ccc(O)cc1)C(=O)NCC(=O)NCC(=O)NCC(=O)N[C@@H](Cc1ccccc1)C(=O)O (H-YGGGF-OH) | inactive |
| N[C@@H](Cc1ccc(O)cc1)C(=O)NCC(=O)N[C@@H](Cc1ccc(O)cc1)C(=O)N[C@@H](Cc1ccccc1)C(=O)N[C@@H](Cc1ccccc1)C(=O)O (H-YGYFF-OH) | inactive |
| CC(C)[C@H](NC(=O)CNC(=O)[C@@H](N)Cc1ccc(O)cc1)C(=O)N[C@@H](Cc1ccccc1)C(=O)N[C@@H](CCC(N)=O)C(=O)O (H-YGVFQ-OH) | inactive |
| CSCC[C@H](N)C(=O)N[C@@H](Cc1ccc(O)cc1)C(=O)NCC(=O)NCC(=O)N[C@@H](Cc1ccccc1)C(=O)O (H-MYGGF-OH) | inactive |

Source: ChEMBL document CHEMBL1150994, “The chemical synthesis of large random peptide libraries and their use for the discovery of ligands for macromolecular acceptors” (Bioorg Med Chem Lett, 1993)
